# Results as given in patent US10258603B2 (priority 2014, dated 2019).
# Molecular target: T1, BRD9 (Homo sapiens, UniProt Q9H8M2)
# T1 construct: 134-239 was cloned, expressed, and purified to homogeneity; Flag; made in house
# T1 sequence (Q9H8M2 134-239 limits assumed): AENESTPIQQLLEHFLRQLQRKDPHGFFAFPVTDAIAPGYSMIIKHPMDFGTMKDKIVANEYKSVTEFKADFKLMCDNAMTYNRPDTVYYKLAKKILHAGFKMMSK
# Assay: BRD9 AlphaLisa Binding Assay
# Conditions: not given
# Method: IC50 Measurements for Inhibitors Using BRD9 AlphaLisa Binding Assay His/Flag epitope tagged BRD9134-239 was cloned, expressed, and purified to homogeneity. […] After 20 minutes incubation at room temperature AlphaLisa Streptavidin Acceptor Beads (Perkin-A[…]) and AlphaLisa Nickel donor beads (Perkin AS 10 ID) were added to a final concentration of 15 ug/mL each.
row,IC50 [nM],Compound
1,3000,"CN(C)CCNC(=O)c1cn(C)c(=O)c2[nH]ccc12 [Example 1, N-(2-dimethylaminoethyl)-6-methyl-7-oxo-1H-pyrrolo[2,3-c]pyridine-4-carboxamide]"
2,3500,"CN1CCC(CNC(=O)c2cn(C)c(=O)c3[nH]ccc23)CC1 [Example 3, 6-methyl-N-[(1-methyl-4-piperidyl)methyl]-7-oxo-1H-pyrrolo[2,3-c]pyridine-4-carboxamide]"
3,790,"Cn1cc(C(=O)NCCN2CCCCC2)c2cc[nH]c2c1=O [Example 5, 6-methyl-7-oxo-N-[2-(1-piperidyl)ethyl]-1H-pyrrolo[2,3-c]pyridine-4-carboxamide]"
4,1500,"CN1CCC(NC(=O)c2cn(C)c(=O)c3[nH]ccc23)C1 (stereo not shown) [Example 6, 6-methyl-N-(1-methylpyrrolidin-3-yl)-7-oxo-1H-pyrrolo[2,3-c]pyridine-4-carboxamide]"
5,990,"CN1CCCC1CCNC(=O)c1cn(C)c(=O)c2[nH]ccc12 (stereo not shown) [Example 7, 6-methyl-N-[2-(1-methylpyrrolidin-2-yl)ethyl]-7-oxo-1H-pyrrolo[2,3-c]pyridine-4-carboxamide]"
6,920,"CC=CCn1cc(C(=O)NCCCN2CCN(C)CC2)c2cc[nH]c2c1=O [Example 9, 6-but-2-enyl-N-[3-(4-methylpiperazin-1-yl)propyl]-7-oxo-1H-pyrrolo[2,3-c]pyridine-4-carboxamide]"
7,5400,"CC=CCn1cc(C(=O)NCC2CCN(C)CC2)c2cc[nH]c2c1=O [Example 11, 6-but-2-enyl-N-[(1-methyl-4-piperidyl)methyl]-7-oxo-1H-pyrrolo[2,3-c]pyridine-4-carboxamide]"
8,840,"CC=CCn1cc(C(=O)NCCN2CCN(C)CC2)c2cc[nH]c2c1=O [Example 12, 6-but-2-enyl-N-[2-(4-methylpiperazin-1-yl)ethyl]-7-oxo-1H-pyrrolo[2,3-c]pyridine-4-carboxamide]"
9,2100,"CC=CCn1cc(C(=O)NC2(C)CCCCC2)c2cc[nH]c2c1=O [Example 18, 6-but-2-enyl-N-(1-methylcyclohexyl)-7-oxo-1H-pyrrolo[2,3-c]pyridine-4-carboxamide]"
10,75,"CC=CCn1cc(C(=O)NCCC2CCN(C(=O)OCc3ccccc3)C2)c2cc[nH]c2c1=O (stereo not shown) [Example 19, benzyl 3-[2-[(6-but-2-enyl-7-oxo-1H-pyrrolo[2,3-c]pyridine-4-carbonyl)amino]ethyl]pyrrolidine-1-carboxylate]"
11,7300,"CN(C(=O)c1cn(C)c(=O)c2[nH]ccc12)C1CCN(Cc2ccccc2)C1 (stereo not shown) [Example 22, N-(1-benzylpyrrolidin-3-yl)-N,6-dimethyl-7-oxo-1H-pyrrolo[2,3-c]pyridine-4-carboxamide]"
12,5400,"CC1CC(C)CN(CCNC(=O)c2cn(C)c(=O)c3[nH]ccc23)C1 (stereo not shown) [Example 33, N-[2-(3.5-dimethyl-1-piperidyl)ethyl]-6-methyl-7-oxo-1H-pyrrolo[2,3-c]pyridine-4-carboxamide]"
13,2200,"CN1CCN(CCCNC(=O)c2cn(C)c(=O)c3[nH]ccc23)CC1 [Example 34, 6-methyl-N-[3-(4-methylpiperazin-1-yl)propyl]-7-oxo-1H-pyrrolo[2,3-c]pyridine-4-carboxamide]"
14,11000,"Cn1cc(C(=O)NC(C)(C)CN2CCOCC2)c2cc[nH]c2c1=O [Example 35, N-(1,1-dimethyl-2-morpholino-ethyl)-6-methyl-7-oxo-1H-pyrrolo[2,3-c]pyridine-4-carboxamide]"
15,8000,"CN1CCN(C(=O)c2cn(C)c(=O)c3[nH]ccc23)CC1 [Example 38, 6-methyl-4-(4-methylpiperazine-1-carbonyl)-1H-pyrrolo[2,3-c]pyridin-7-one]"
16,6100,"CC1CCCN(CCNC(=O)c2cn(C)c(=O)c3[nH]ccc23)C1 (stereo not shown) [Example 45, 6-methyl-N-[2-(3-methyl-1-piperidyl)ethyl]-7-oxo-1H-pyrrolo[2,3-c]pyridine-4-carboxamide]"
17,570,Cn1cc(C(=O)N2CCCC2c2ccccc2)c2cc[nH]c2c1=O (stereo not shown) [Example 85]
18,160,Cn1cc(C(=O)NCC2CCCCC2)c2cc[nH]c2c1=O [Example 86]
19,1000,CN(Cc1ccccc1)C(=O)c1cn(C)c(=O)c2[nH]ccc12 [Example 87]
20,1500,Cn1cc(C(=O)N2CCNc3ccccc3C2)c2cc[nH]c2c1=O [Example 88]
21,4100,Cn1cc(C(=O)N2CCC(c3ccccc3)C2)c2cc[nH]c2c1=O (stereo not shown) [Example 89]
22,300,Cn1cc(C(=O)N[C@H](C(N)=O)c2ccccc2)c2cc[nH]c2c1=O [Example 90]
23,200,Cn1cc(C(=O)NC(c2ccccc2)c2ccccc2)c2cc[nH]c2c1=O [Example 91]
24,490,Cn1cc(C(=O)N[C@@H](C(N)=O)c2ccccc2)c2cc[nH]c2c1=O [Example 97]
25,550,CC(C)[C@H](NC(=O)c1cn(C)c(=O)c2[nH]ccc12)C(N)=O [Example 98]
26,860,Cn1cc(C(=O)NCC2CCOC2)c2cc[nH]c2c1=O (stereo not shown) [Example 102]

row,IC50 [nM],Compound
1,490,Cn1cc(C(=O)NCC2CCCCCC2)c2cc[nH]c2c1=O [Example 103]
2,980,Cn1cc(C(=O)NC2CCOC2)c2cc[nH]c2c1=O (stereo not shown) [Example 104]
3,240,CC(NC(=O)c1cn(C)c(=O)c2[nH]ccc12)C1CC2CCC1C2 (stereo not shown) [Example 106]
4,3400,Cn1cc(C(=O)N[C@H](c2ccccc2)[C@@H](O)c2ccccc2)c2cc[nH]c2c1=O [Example 107]
5,200,Cn1cc(C(=O)NCC2COc3ccccc3C2)c2cc[nH]c2c1=O (stereo not shown) [Example 108]
6,270,Cn1cc(C(=O)NC2CCN(C(=O)OC(C)(C)C)C2)c2cc[nH]c2c1=O (stereo not shown) [Example 109]
7,850,Cn1cc(C(=O)NCC2Cc3ccccc3O2)c2cc[nH]c2c1=O (stereo not shown) [Example 110]
8,240,Cn1cc(C(=O)NCC2COc3ccccc3O2)c2cc[nH]c2c1=O (stereo not shown) [Example 111]
9,460,CC(NC(=O)c1cn(C)c(=O)c2[nH]ccc12)C1CC1 (stereo not shown) [Example 112]
10,73,Cn1cc(C(=O)NCc2cccc3ccccc23)c2cc[nH]c2c1=O [Example 114]
11,640,CC(NC(=O)c1cn(C)c(=O)c2[nH]ccc12)c1ccncc1 (stereo not shown) [Example 115]
12,240,CC(NC(=O)c1cn(C)c(=O)c2[nH]ccc12)c1ccccc1Cl (stereo not shown) [Example 118]
13,440,CC(NC(=O)c1cn(C)c(=O)c2[nH]ccc12)c1ccc2c(c1)OCCO2 (stereo not shown) [Example 120]
14,100,Cn1cc(C(=O)NC2COCc3ccccc32)c2cc[nH]c2c1=O (stereo not shown) [Example 121]
15,2200,Cc1cc(CC(C)NC(=O)c2cn(C)c(=O)c3[nH]ccc23)on1 (stereo not shown) [Example 122]
16,2900,Cn1cc(C(=O)NC2COCC2c2ccc(F)cc2)c2cc[nH]c2c1=O (stereo not shown) [Example 124]
17,130,Cn1cc(C(=O)NC2CCCc3ccccc32)c2cc[nH]c2c1=O (stereo not shown) [Example 125]
18,220,CC(NC(=O)c1cn(C)c(=O)c2[nH]ccc12)c1ccc(F)cc1 (stereo not shown) [Example 129]
19,1600,Cn1cc(C(=O)NC(C)(C)c2ccccc2)c2cc[nH]c2c1=O [Example 131]
20,280,Cn1cc(C(=O)NCC2CN(C(=O)OC(C)(C)C)CCO2)c2cc[nH]c2c1=O (stereo not shown) [Example 134]
21,400,"Cn1cc(C(=O)NCC2CCCN2C(=O)OC(C)(C)C)c2cc[nH]c2c1=O (stereo not shown) [Example 136, tert-butyl 2-[[(6-methyl-7-oxo-1H-pyrrolo[2,3-c]pyridine-4-carbonyl)amino]methyl]pyrrolidine-1-carboxylate]"
22,310,Cn1cc(C(=O)NC2CCCN(C(=O)OC(C)(C)C)C2)c2cc[nH]c2c1=O (stereo not shown) [Example 138]
23,1600,"CN(C(=O)c1cn(C)c(=O)c2[nH]ccc12)C1CCN(c2nccc(C#N)n2)CC1 [Example 146, N-[1-(4-cyanopyrimidin-2-yl)-4-piperidyl]-N,6-dimethyl-7-oxo-1H-pyrrolo[2,3-c]pyridine-4-carboxamide]"
24,4300,"C=CCn1cc(C(=O)N(C)C2CCN(c3nccc(C(F)(F)F)n3)CC2)c2cc[nH]c2c1=O [Example 159, 6-allyl-N-methyl-7-oxo-N-[1-[4-(trioromethyl)pyrimidin-2-yl]-4-piperidyl]-1H-pyrrolo[2,3-c]pyridine-4-carboxamide]"
25,2900,"C=CCn1cc(C(=O)N(C)C2CCN(c3ccncn3)CC2)c2cc[nH]c2c1=O [Example 161, 6-allyl-N-methyl-7-oxo-N-(1-pyrimidin-4-yl-4-piperidyl)-1H-pyrrolo[2,3-c]pyridine-4-carboxamide]"
26,15000,CC(C)N1CCC(CN(C)C(=O)c2cn(C)c(=O)c3[nH]ccc23)CC1 [Example 190]

# Molecular target: T2, TAF1-BD2 (Homo sapiens, UniProt P21675)
# T2 sequence (P21675 1525-1656): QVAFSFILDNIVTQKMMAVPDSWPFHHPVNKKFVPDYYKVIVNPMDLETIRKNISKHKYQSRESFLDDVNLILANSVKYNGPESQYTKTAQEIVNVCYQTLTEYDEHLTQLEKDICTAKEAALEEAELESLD
# Assay: TAF1-BD2 TR-FRET Binding Assay
# Conditions: Assay: TAF-1
# Method: Specifically, in a 384 well ProxiPlate TAF1-BD2 (6 nM final) was combined with biotin-ligand (50 nM final) in 50 mM HEPES (pH 7.5), 50 mM NaCl, 1 mM TCEP, 0.01% (w/v) BSA, and 0.008% (w/v) Brij-35 either in the presence of DMSO (final 0.2% DMSO) or compound dilution series in DMSO. After 10 minutes incubation at room temperature, a mixture Eu-W1024 Anti-6×His antibody (Perkin Elmer AD0110) and SureLight™ Allophycocyanin-Streptavidin (APC-SA, Perkin Elmer CR130-100) were added to a final concentrations of 0.2 nMolar antibody and 25 nMolar APC-SA, respectively. After twenty minutes of equilibration, the plates were read on an Envision instrument and IC50s calculated using a four parameter non-linear curve fit.
row,IC50 [nM],Compound
1,9900,CN(CC1CCN(CC2CCCCO2)CC1)C(=O)c1cn(C)c(=O)c2[nH]ccc12 (stereo not shown) [Example 235]
2,14000,CN(CC1CCN(CC2CCOC2)CC1)C(=O)c1cn(C)c(=O)c2[nH]ccc12 (stereo not shown) [Example 236]
3,14000,C=CCn1cc(C(=O)N(C)C2[C@H]3CN(c4nccc(C(F)(F)F)n4)C[C@@H]23)c2cc[nH]c2c1=O (stereo partly shown) [Example 250]
4,5000,"CN(C(=O)c1cn(C)c(=O)c2[nH]ccc12)C1CCN(CCc2ccccc2)CC1 [Example 252, N,6-dimethyl-7-oxo-N-(1-phenethyl-4-piperidyl)-1H-pyrrolo[2,3-c]pyridine-4-carboxamide]"
5,4800,CC(CN1CCC(N(C)C(=O)c2cn(C)c(=O)c3[nH]ccc23)CC1)c1ccccc1 (stereo not shown) [Example 255]

row,Compound,IC50 [nM]
1,"N-cyclopropyl-6-methyl-N-(1-methyl-4-piperidyl)-7-oxo-1H-pyrrolo[2,3-c]pyridine-4-carboxamide [Example 81]",710
